Reference: US9856279B2 (AGIOS PHARMACEUTICALS, INC, priority 2011, dated 2018)

molecular target: IDH1 R132H (Homo sapiens, UniProt O75874, R132H); assay: Assay for IDH1 R132H inhibitors (NADPH/aKG, resazurin detection); format: biochemical; settings: Table 3; enzyme assay, 50 minutes at room temperature; read-out: IC50 (IDH1 R132H Inhibition)
Procedure: Assays were conducted in a volume of 76 μl assay buffer (150 mM NaCl, 10 mM MgCl2, 20 mM Tris pH 7.5, 0.03% bovine serum albumin) as follows in a standard 384-well plate: To 25 ul of substrate mix (8 uM NADPH, 2 mM aKG), 1 μl of test compound was added in DMSO. The plate was centrifuged briefly, and then 25 μl of enzyme mix was added (0.2 μg/ml IDH1 R132H) followed by a brief centrifugation and shake at 100 RPM. The reaction was incubated for 50 minutes at room temperature, then 25 μl of detection mix (30 μM resazurin, […]) was added and the mixture further incubated for 5 minutes at room temperature. The conversion of resazurin to resorufin was detected by fluorescent spectroscopy at Ex544 Em590 c/o 590.

Sequence of IDH1 R132H (O75874 whole entry R132H): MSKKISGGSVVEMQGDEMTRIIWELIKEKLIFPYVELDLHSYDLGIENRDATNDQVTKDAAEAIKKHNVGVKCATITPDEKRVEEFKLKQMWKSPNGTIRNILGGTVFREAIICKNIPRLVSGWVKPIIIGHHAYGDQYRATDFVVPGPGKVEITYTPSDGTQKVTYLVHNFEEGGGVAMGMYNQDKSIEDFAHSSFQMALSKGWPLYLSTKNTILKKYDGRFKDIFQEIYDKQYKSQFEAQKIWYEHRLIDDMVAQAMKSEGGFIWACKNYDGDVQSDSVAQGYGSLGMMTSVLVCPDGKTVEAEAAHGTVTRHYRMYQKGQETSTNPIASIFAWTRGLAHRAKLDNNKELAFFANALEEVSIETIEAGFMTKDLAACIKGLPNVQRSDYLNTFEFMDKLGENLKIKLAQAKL

First: CC(C)c1nc(N2CCN(C(=O)Cc3ccccc3)C(C)C2)c(C#N)cc1-c1ccccc1 (stereo in doubt) [Compound 145, (R)-6-isopropyl-2-(3-methyl-4-(2-phenylacetyl)piperazin-1-yl)-5-phenylnicotinonitrile]
Second: CC(C)c1cc(-c2ccccc2)c(C#N)c(N2CCN(C(=O)Cc3ccccc3)C(C)C2)n1 (stereo not shown) [Compound 121, 6-isopropyl-2-(3-methyl-4-(2-phenylacetyl)piperazin-1-yl)-4-phenylnicotinonitrile]
The IC50 of the first is lower: 1 to 5 µM for the first, 5 to 15 µM for the second.

First: CC(C)c1cc(-c2ccccc2)c(C#N)c(N2CCN(C(=O)c3ccccc3)CC2)n1 [Compound 100, 2-(4-benzoylpiperazin-1-yl)-6-isopropyl-4-phenylnicotinonitrile]
Second: COc1ccccc1-c1cc(C(C)C)nc(N2CCN(C(=O)c3ccccc3)CC2)c1C#N [Compound 105, 2-(4-benzoylpiperazin-1-yl)-6-isopropyl-4-(2-methoxyphenyl)nicotinonitrile]
The IC50 of the first is higher: 5 to 15 µM for the first, 1 to 5 µM for the second.

CC(C)c1cc(-c2ccccc2)c(C#N)c(N2C[C@@H](C)N(C(=O)c3ccccc3)[C@@H](C)C2)n1 [Compound 101, 2-((3S,5R)-4-benzoyl-3,5-dimethylpiperazin-1-yl)-6-isopropyl-4-phenylnicotinonitrile] and CC(C)c1cc(-c2ccccc2)c(C#N)c(N2C[C@@H](C)N(C(=O)c3ccco3)[C@@H](C)C2)n1 [Compound 102, 2-((3S,5R)-4-(furan-2-carbonyl)-3,5-dimethylpiperazin-4-yl)-6-isopropyl-4-phenylnicotinonitrile] fall in the same range of IC50: 1 to 5 µM for the first, 1 to 5 µM for the second.

CC(C)c1cc(-c2ccccc2)nc(N2CCN(C(=O)c3ccco3)CC2)c1C#N [Compound 103, 2-(4-(furan-2-carbonyl)piperazin-1-yl)-4-isopropyl-6-phenylnicotinonitrile] and CC(C)c1cc(-c2ccccc2)nc(N2CCN(C(=O)c3ccco3)C(C)C2)c1C#N (stereo not shown) [Compound 108, 2-(4-(furan-2-carbonyl)-3-methylpiperazin-1-yl)-4-isopropyl-6-phenylnicotinonitrile] fall in the same range of IC50: 5 to 15 µM for the first, 5 to 15 µM for the second.

COc1ccccc1-c1cc(C(C)C)nc(N2CCN(C(=O)c3ccco3)CC2)c1C#N [Compound 104, 2-(4-(furan-2-carbonyl)piperazin-1-yl)-6-isopropyl-4-(2-methoxyphenyl)nicotinonitrile] and COc1ccccc1-c1cc(C(C)C)nc(N2CCN(C(=O)c3ccoc3)CC2)c1C#N [Compound 113, 2-(4-(furan-3-carbonyl)piperazin-1-yl)-6-isopropyl-4-(2-methoxyphenyl)nicotinonitrile] fall in the same range of IC50: 5 to 15 µM for the first, 5 to 15 µM for the second.

COc1ccccc1-c1cc(C(C)C)nc(N2CCN(C(=O)c3c[nH]c4ccccc34)CC2)c1C#N [Compound 106] and CC(C)c1cc(-c2cccc(F)c2)c(C#N)c(N2CCN(C(=O)c3c[nH]c4ccccc34)CC2)n1 [Compound 116, 2-(4-(1H-indole-3-carbonyl)piperazin-1-yl)-4-(3-fluorophenyl)-6-isopropylnicotinonitrile] fall in the same range of IC50: 5 to 15 µM for the first, 5 to 15 µM for the second.

First: CC(C)c1cc(-c2ccccc2)c(C#N)c(N2CCN(C(=O)c3ccco3)C(C)C2)n1 (stereo not shown) [Compound 107, 2-(4-(furan-2-carbonyl)-3-methylpiperazin-1-yl)-6-isopropyl-4-phenylnicotinonitrile]
Second: CC(C)c1cc(-c2cccc(F)c2)c(C#N)c(N2CCN(C(=O)c3ccco3)C(C)C2)n1 (stereo not shown) [Compound 127, 4-(3-fluorophenyl)-2-(4-(furan-2-carbonyl)-3-methylpiperazin-1-yl)-6-isopropylnicotinonitrile]
The IC50 of the first is lower: 1 to 5 µM for the first, 5 to 15 µM for the second. The first is the more potent here.

CC(C)c1nc(N2CCN(C(=O)c3ccco3)CC2)c(C#N)cc1-c1ccccc1 [Compound 109, 2-(4-(furan-2-carbonyl)piperazin-1-yl)-6-isopropyl-5-phenylnicotinonitrile] and CC(C)c1nc(N2CCN(C(=O)c3ccoc3)CC2)c(C#N)cc1-c1ccccc1 [Compound 124, 2-(4-(furan-3-carbonyl)piperazin-1-yl)-6-isopropyl-5-phenylnicotinonitrile] fall in the same range of IC50: 5 to 15 µM for the first, 5 to 15 µM for the second.

CC(C)c1cc(-c2ccccc2)c(C#N)c(N2CCN(C(=O)c3ccoc3)C(C)C2)n1 (stereo not shown) [Compound 110, 2-(4-(furan-3-carbonyl)-3-methylpiperazin-1-yl)-6-isopropyl-4-phenylnicotinonitrile] and CC(C)c1cc(-c2ccccc2)c(C#N)c(N2CCN(C(=O)c3ccoc3)[C@H](C)C2)n1 [Compound 130, (R)-2-(4-(furan-3-carbonyl)-3-methylpiperazin-1-yl)-6-isopropyl-4-phenylnicotinonitrile] fall in the same range of IC50: 1 to 5 µM for the first, 1 to 5 µM for the second.

First: CC(C)c1cc(-c2ccccc2)nc(N2CCN(C(=O)c3ccoc3)C(C)C2)c1C#N (stereo not shown) [Compound 111]
Second: CC(C)c1cc(-c2ccccc2)c(C#N)c(N2CCN(C(=O)c3ccoc3)[C@@H](C)C2)n1 [Compound 132, (S)-2-(4-(furan-3-carbonyl)-3-methylpiperazin-1-yl)-6-isopropyl-4-phenylnicotinonitrile]
The IC50 of the first is higher: 5 to 15 µM for the first, 1 to 5 µM for the second.

CC(C)c1cc(-c2cccc(F)c2)c(C#N)c(N2CCN(C(=O)c3ccco3)CC2)n1 [Compound 114, 4-(3-fluorophenyl)-2-(4-(furan-2-carbonyl)piperazin-1-yl)-6-isopropylnicotinonitrile] and CC(C)c1cc(-c2cccc(F)c2)c(C#N)c(N2CCN(C(=O)c3ccoc3)CC2)n1 [Compound 115, 4-(3-fluorophenyl)-2-(4-(furan-3-carbonyl)piperazin-1-yl)-6-isopropylnicotinonitrile] fall in the same range of IC50: 1 to 5 µM for the first, 1 to 5 µM for the second.

CC1CN(c2nc(-c3ccccc3)c(-c3ccccc3)cc2C#N)CCN1C(=O)c1ccco1 (stereo not shown) [Compound 117, 2-(4-(furan-2-carbonyl)-3-methylpiperazin-1-yl)-5,6-diphenylnicotinonitrile] and CC1CN(c2nc(-c3ccccc3)c(-c3ccccc3)cc2C#N)CCN1C(=O)c1ccoc1 (stereo not shown) [Compound 118, 2-(4-(furan-3-carbonyl)-3-methylpiperazin-1-yl)-5,6-diphenylnicotinonitrile] fall in the same range of IC50: 5 to 15 µM for the first, 5 to 15 µM for the second.

First: CC(C)c1nc(N2CCN(C(=O)c3ccco3)C(C)C2)c(C#N)cc1-c1ccccc1 (stereo not shown) [Compound 119, 2-(4-(furan-2-carbonyl)-3-methylpiperazin-1-yl)-6-isopropyl-5-phenylnicotinonitrile]
Second: CC(C)c1nc(N2CCN(C(=O)c3ccoc3)C(C)C2)c(C#N)cc1-c1ccccc1 (stereo not shown) [Compound 120, 2-(4-(furan-3-carbonyl)-3-methylpiperazin-1-yl)-6-isopropyl-5-phenylnicotinonitrile]
The IC50 of the first is higher: 5 to 15 µM for the first, 1 to 5 µM for the second.

N#Cc1cc(-c2ccccc2)c(-c2ccccc2)nc1N1CCN(C(=O)c2ccoc2)CC1 [Compound 122, 2-(4-(furan-3-carbonyl)piperazin-1-yl)-5,6-diphenylnicotinonitrile] and N#Cc1cc(-c2ccccc2)c(-c2ccccc2)nc1N1CCN(C(=O)Cc2ccccc2)CC1 [Compound 123, 5,6-diphenyl-2-(4-(2-phenylacetyl)piperazin-1-yl)nicotinonitrile] fall in the same range of IC50: 5 to 15 µM for the first, 5 to 15 µM for the second.

Compared with CC(C)c1nc(N2CCN(C(=O)c3c[nH]c4ccccc34)CC2)c(C#N)cc1-c1ccccc1 [Compound 125, 2-(4-(1H-indole-3-carbonyl)piperazin-1-yl)-6-isopropyl-5-phenylnicotinonitrile], CC(C)c1nc(N2CCN(C(=O)Cc3ccccc3)CC2)c(C#N)cc1-c1ccccc1 [Compound 126, 6-isopropyl-5-phenyl-2-(4-(2-phenylacetyl)piperazin-1-yl)nicotinonitrile] is lower in IC50: 5 to 15 µM for the first, 1 to 5 µM for the second. The second is the more potent here.

CC(C)c1cc(-c2cccc(F)c2)c(C#N)c(N2CCN(C(=O)c3ccoc3)C(C)C2)n1 (stereo not shown) [Compound 128, 4-(3-fluorophenyl)-2-(4-(furan-3-carbonyl)-3-methylpiperazin-1-yl)-6-isopropylnicotinonitrile] and CC(C)c1cc(-c2cccc(F)c2)c(C#N)c(N2CC(C)N(C(=O)c3ccoc3)C(C)C2)n1 (stereo not shown) [Compound 134, 4-(3-fluorophenyl)-2-(4-(furan-3-carbonyl)-3,5-dimethylpiperazin-1-yl)-6-isopropylnicotinonitrile] fall in the same range of IC50: 1 to 5 µM for the first, 1 to 5 µM for the second.

First: CC(C)c1cc(-c2cccc(F)c2)c(C#N)c(N2CCN(C(=O)c3c[nH]c4ccccc34)C(C)C2)n1 (stereo not shown) [Compound 129, 2-(4-(1H-indole-3-carbonyl)-3-methylpiperazin-1-yl)-4-(3-fluorophenyl)-6-isopropylnicotinonitrile]
Second: CC(C)c1cc(-c2ccccc2)c(C#N)c(N2CCN(C(=O)Cc3ccccc3)[C@H](C)C2)n1 [Compound 131, (R)-6-isopropyl-2-(3-methyl-4-(2-phenylacetyl)piperazin-1-yl)-4-phenylnicotinonitrile]
The IC50 of the first is higher: 5 to 15 µM for the first, 1 to 5 µM for the second. The second is the more potent here.

CC(C)c1cc(-c2ccccc2)c(C#N)c(N2CCN(C(=O)Cc3ccccc3)[C@@H](C)C2)n1 [Compound 133, (S)-6-isopropyl-2-(3-methyl-4-(2-phenylacetyl)piperazin-1-yl)-4-phenylnicotinonitrile] and CC(C)c1cc(-c2cccc(F)c2)c(C#N)c(N2CC(C)N(C(=O)Cc3ccccc3)C(C)C2)n1 (stereo not shown) [Compound 135, 2-(3,5-dimethyl-1-(2-phenylacetyl)piperazin-1-yl)-4-(3-fluorophenyl)-6-isopropylnicotinonitrile] fall in the same range of IC50: 1 to 5 µM for the first, 1 to 5 µM for the second.

With CC(C)c1cc(-c2cccc(F)c2)c(C#N)c(N2CC(C)N(C(=O)c3ccco3)C(C)C2)n1 (stereo not shown) [Compound 136, 4-(3-fluorophenyl)-2-(4-(furan-2-carbonyl)-3,5-dimethylpiperazin-1-yl)-6-isopropylnicotinonitrile] the IC50 was 5 to 15 µM.
